Data taken from patent US20260306460A1, “COMPOSITION FOR REMOVING AND INHIBITING SENESCENT CELLS, AND USES THEREOF” (LIFECEUTIX CO., LTD., priority 2023, published 2026).

Experiments:
Type in all cases: in vivo, mouse
[1] = system: SAMP8 mice; assay: Cognitive impairment in SAMP8 mice (p16 mRNA, Y maze), Example 28, Table 52; settings: for Spontaneous alternation: Y maze test, 8 minutes, untreated 48.4 (±27.3); for p16 mRNA: hippocampus, daily for 21 days, untreated 100%
Description: Twelve-week-old male SAMP8 mice (SLC), a cognitive impairment model, were acclimated to the experimental environment for one week and then randomly assigned to experimental and control groups. […] LX-2101 was mixed with 5% DMSO (Sigma) in PBS and administered intraperitoneally at a concentration of 10 mg/kg daily for 21 days. The control group received only the same volume of solution. After drug administration, the mice were tested in the Y maze test to analyze the degree of cognitive and memory improvement. The Y-maze test is a method to assess short-term memory-type spatial awareness. It is a Y-shaped enclosed maze made of black acrylic to the following specifications (40 cm in length, 8 cm in width, 13 cm in height, with each arm angled 120 degrees). Three arms are designated A, B, and C. A mouse is carefully placed on one arm and allowed to move freely for 8 minutes. The arm into which the mouse enters up to its tail is recorded in order. Each instance of entering each arm sequentially is awarded 1 point (actual alternation). Alternation behavior is defined as entering all arms without overlapping, and spontaneous alternation behavior is calculated using the following formula:
Spontaneous alternation behavior (%)=Actual alternation/Maximum alternation×100 • Maximum alternation: Total number of entries-2
After the behavioral evaluation, the mice were sacrificed, and RNA from the hippocampus region of the brain was extracted using the same method as Example 7-2 of WO2023-085787 A1, and qRT-PCR was performed using the synthesized cDNA.

[2] = system: carbon tetrachloride-induced liver fibrosis C57BL6J mice; assay: Carbon tetrachloride liver disease in mice (p16, IL6, Col1a1 mRNA, AST), Example 26, Table 50; settings: daily for 21 days, untreated 100%; for Col1a1 mRNA / IL6 mRNA / p16 mRNA: liver
Description: Eight-week-old male C57BL6J mice (KRIBB Laboratory Animal Resource Center) were acclimated to the experimental environment for one week. Carbon tetrachloride (CCL4) was administered intraperitoneally at a concentration of 0.5 μl/g, and aging was induced for at least six weeks. The aging-induced mice were randomly assigned to experimental and control groups. […] The control group received only the solution in the same volume. After the drug administration was terminated, mice were sacrificed, and RNA was extracted from the liver in the same manner as in Example 7-2 of WO2023-085787 A1, and qRT-PCR was performed using the synthesized cDNA. […] The mRNA and AST amounts after aging was induced were calculated as 100% and compared with the mRNA amount of p16 after treatment with the test compound.

[3] = system: bleomycin-induced pulmonary fibrosis C57BL6J mice; assay: Bleomycin pulmonary fibrosis in mice (p16, IL6, Col1a1 mRNA, alveoli size), Example 24-1, Table 47; settings: for Airspace enlargement: average size of alveoli, untreated 39.8 (±0.4); for Col1a1 mRNA / IL6 mRNA / p16 mRNA: lung, daily for 21 days, untreated 100%
Description: Eight-week-old male C57BL6J mice (KRIBB Laboratory Animal Resource Center) were acclimated to the experimental environment for one week. They were then administered the anticancer drug bleomyxin via intratracheal inhalation at a concentration of 2.5 mg/kg, inducing aging for more than 10 days. The aging-induced mice were randomly assigned to experimental and control groups. […] LX-3002 was mixed in distilled water with 4% DMSO, 30% PEG300, 5% tween80 and administered orally at a concentration of 10 mg/kg daily for 21 days. LX-5701 was mixed in PBS and administered orally at a concentration of 360 mg/kg daily for 21 days. LX-6807 was mixed in saline and administered intraperitoneally at a concentration of 1 mg/kg daily for 21 days. The control group received only the solution in the same volume. After the end of drug administration, mice were sacrificed in the same manner as in Example 7-2 of WO2023-085787 A1, RNA was extracted from lung tissue, and qRT-PCR (quantitative real-time PCR) was performed and analyzed using the synthesized cDNA. […] The amount of mRNA after aging was calculated as 100%, and the results after treatment with the test compound were compared. Furthermore, paraffin sections were stained with hematoxylin/eosin (H/E), and the size of alveoli was measured under an optical microscope to assess the degree of lung function impairment due to pulmonary fibrosis.

[4] = system: doxorubicin-induced aged C57BL6J mice; assay: Liver damage (AST, ALT) in doxorubicin-aged mice, Example 22-8, Table 37; settings: serum, amount after aging calculated as 100%
Description: Eight-week-old male C57BL6J mice (KRIBB Laboratory Animal Resource Center) were acclimated to the experimental environment for one week. […] The aging-induced mice were randomly assigned to experimental and control groups. […] The control group received only the solution in the same volume.
The amounts were measured spectrophotometrically using a kit (Sigma) according to the manufacturer's instructions. […] The amount of each factor after aging was calculated as 100% and compared with the amount of each factor after treatment with the test compound.

[5] = system: obesity-induced aged C57BL6J mice; assay: Diabetes and complications (HbA1c, wound size, VEGF mRNA) in obesity-aged mice, Example 23-6, Table 46; settings: for VEGF mRNA: eye, qRT-PCR, amount after aging calculated as 100%; for diabetic foot ulcer size: full-thickness 5 mm×5 mm wound, untreated 4.2 (±0.4); for diabetic foot ulcer size / HbA1c: obesity-induced diabetes mice; for HbA1c: serum, daily for 21 days, untreated 6.9 (±1.5)
Description: 15-week-old male C57BL6J mice (The Jackson Laboratory) were induced to obesity by a high-fat diet using the same method as in Example 9-1 WO2023-085787 A1. After acclimation to the experimental environment for one week, the mice were randomly assigned to experimental and control groups. […] LX-3002 was mixed in distilled water with 4% DMSO, 30% PEG300, and 5% Tween80 and administered orally at a concentration of 10 mg/kg daily for 21 days. LX-5701 was mixed in PBS and administered orally at a concentration of 360 mg/kg daily for 21 days. LX-6807 was mixed in saline and administered intraperitoneally at a concentration of 1 mg/kg daily for 21 days. The control group received only the solution in the same volume. After the end of drug administration, the methods described in each example below were performed.
Serum collected from mice using the same method as in Example 7-5 of WO2023-085787 A1 was used to measure glycated hemoglobin (HbA1c), a marker of hyperglycemia and diabetes. Furthermore, the improvement in diabetic foot ulcers and diabetic retinopathy, major complications of diabetes, was analyzed. Specifically, a diabetic foot ulcer model was created by creating a full-thickness 5 mm×5 mm wound on the left dorsal skin of mice induced with obesity-induced diabetes. The wound size was measured under untreated and treated conditions with the test compound, and the healing effect was analyzed. In addition, the mRNA amount of VEGF, a marker of angiogenesis in retinopathy, was measured from the eye using qRT-PCR as described in Example 7-2 of WO2023-085787 A1. The qRT-PCR results were calculated as 100% for the amount of each factor after aging was induced, and compared with the amount of each factor after treatment with the test compound.

Compound	Spontaneous alternation [1]	p16 mRNA [1]	Col1a1 mRNA [2]	IL6 mRNA [2]	p16 mRNA [2]	Serum AST [2]	Airspace enlargement [3]	Col1a1 mRNA [3]	IL6 mRNA [3]	p16 mRNA [3]	ALT [4]	AST [4]	VEGF mRNA [5]	diabetic foot ulcer size [5]	HbA1c [5]
CC1(C)CC[C@]2(NC(=O)C(C)(F)F)CC[C@]3(C)[C@H](C(=O)C=C4[C@@]5(C)C=C(C#N)C(=O)C(C)(C)[C@@H]5CC[C@]43C)[C@@H]2C1 [LX-2101, Omaveloxolone]	51.1 (±16.8) %	82 (±7.1) %													
CCCC\C=C/C=C/C=C\CCCCCCCC(=O)O [LX-2707, Punicic acid]	54.5 (±2.0) %	75 (±3.3) %	76 (±2.5) %	56 (±2.1) %	68 (±1.6) %	79 (±5.6) %	35.4 (±1.8) μm	70 (±6.5) %	38 (±4.1) %	43 (±4.2) %	76 (±5.6) %	70 (±3.2) %	76 (±4.0) %	3.4 (±0.3) mm	6.1 (±0.6) %
O=C1C2CCN(CC2)C1CNC(=O)C(F)(F)F (stereo not drawn) [LX-5701]	62.7 (±11.9) %	70 (±9.6) %	62 (±6.7) %	53 (±17.6) %	70 (±6.2) %	77 (±8.0) %	30.1 (±2.7) μm	52 (±13.9) %	59 (±13.2) %	65 (±7.1) %	64 (±15.7) %	72 (±13.5) %	61 (±10.6) %	3.0 (±0.9) mm	5.0 (±1.3) %
Cc1cccc([C@H](C)c2cnc[nH]2)c1C [LX-6807, Dexmedetomidine]	60.7 (±4.3) %	39 (±6.2) %	51 (±3.1) %	58 (±2.6) %	67 (±3.0) %	75 (±1.4) %	33.8 (±3.6) μm	56 (±3.6) %	48 (±2.4) %	54 (±1.9) %	80 (±6.7) %	75 (±7.0) %	68 (±1.6) %	3.3 (±0.5) mm	5.4 (±0.5) %
Tocofersolan [LX-3001]	50.6 (±3.6) %	64 (±2.8) %	71 (±2.4) %	65 (±3.4) %	76 (±3.7) %	82 (±4.5) %	36.2 (±2.2) μm	64 (±3.9) %	51 (±3.6) %	65 (±3.8) %			77 (±2.4) %	3.5 (±0.2) mm	6.4 (±0.4) %
